Where two headings read alike, the source gives them in different places.
Legend:
in vivo [1] = conditions: rat, in vivo, po; for mortality at 120 h: read-out: % of dead animals; for mortality: read-out: % of dead animals per day
Excerpt: (§1) Five days subacute toxicity in rats per os
(§2) Animals: 5 female rats for each group, average body weight: 150g.

rats [2] = test: in vivo; conditions: 5 days, rats, per os
Excerpt: as §1, §2

in vivo [3] = assay type: in vivo; conditions: rat, in vivo, po; read-out: LD 50 (Litchfield and Wilcoxon)
Rat = test: in vivo; assay type: in vivo
rats [4] = assay type: in vivo, rat; conditions: for Average number of lesions per animal / Gastrolesive effect, relative potency to naproxen / Gastrolesive effect, relative potency to piroxicam: single oral administration, male rats
Method: The test was modified by increasing the fast period to 70 hours and giving the total dose of substance in one single oral administration.
Animals: 10 male rats for each group, average body weight: 150g.

phenylquinone writhes = test: Analgesic activity according to Hendershot et al., phenylquinone writhes, modified; assay type: in vivo, mouse
Method: Analgesic activity according to HENDERSHOT et al., Jour. Pharm.
The test was modified by numbering the writhes only along the time interval from 5 to 15 minutes since the injection of phenylquinone. The injection was made 2 hours after the oral administration of the compound to be tested.
Animals: 8 female mice for each group, average body weight: 25g

carrageenin paw edema = test: Antiinflammatory activity according to Winter et al., carrageenin paw edema, modified; assay type: in vivo, rat
Method: Antiinflammatory activity according to WINTER et al., Proc. Soc. Exp. Biol. Med.; 111, 544; 1962.
The test was modified in that the injection of carrageenin and the administration of the compound by gastric gavage were carried out simultaneously and the paw edema was measured at the plethysmograph after 4 hours.
Animals: 6 female rats for each group, average body weight: 150g

pyresis = test: Antipyretic activity according to Burn et al.; assay type: in vivo, rat; conditions: for Reduction of the pyresis at hour 4: female rats
Excerpt: Animals: 6 female rats for each group, average body weight 200 g.

in vivo [5] = conditions: mouse, po
[6] = 100 mg/kg (maximum tested dose)
[7] = Mus musculus, 50 mg/kg oral, 2 h before phenylquinone, 5-15 min, female mice
[8] = Mus musculus, 100 mg/kg oral, 2 h before phenylquinone, 5-15 min, female mice
[9] = Rattus norvegicus, po, 4 h, 50 mg/kg per os, female rats, read-out: % inhibition of the edema after 4 hours
[10] = Rattus norvegicus, po, 4 h, 100 mg/kg per os, female rats, read-out: % inhibition of the edema after 4 hours
[11] = 50 mg/g (so in the source) per os
[12] = 100 mg/g (so in the source) per os

Row | SMILES | Subacute toxicity, relative ratio to naproxen (rats [2]) | Subacute toxicity, relative ratio to piroxicam (rats [2]) | LD50 (in vivo [3]) [mg/kg] | Average number of lesions per animal (rats [4]; [6]) | Gastrolesive effect, relative potency to naproxen (rats [4]) | Gastrolesive effect, relative potency to piroxicam (rats [4]) | Analgesic relative potency to naproxen (phenylquinone writhes; 50 mg/kg oral) | Analgesic relative potency to piroxicam (phenylquinone writhes; 50 mg/kg oral) | Analgesic relative potency to naproxen (phenylquinone writhes; 100 mg/kg oral) | Analgesic relative potency to piroxicam (phenylquinone writhes; 100 mg/kg oral) | inhibition in vivo at 50 mg/kg (phenylquinone writhes; [7]) [%] | inhibition in vivo at 100 mg/kg (phenylquinone writhes; [8]) [%] | Antiinflammatory relative potency to naproxen (carrageenin paw edema; 50 mg/kg per os) | Antiinflammatory relative potency to piroxicam (carrageenin paw edema; 50 mg/kg per os) | Antiinflammatory relative potency to naproxen (carrageenin paw edema; 100 mg/kg per os) | Antiinflammatory relative potency to piroxicam (carrageenin paw edema; 100 mg/kg per os) | inhibition in vivo at 50 mg/kg (carrageenin paw edema; [9]) [%] | inhibition in vivo at 100 mg/kg (carrageenin paw edema; [10]) [%] | Antipyretic relative potency to naproxen (pyresis; [11]) | Antipyretic relative potency to piroxicam (pyresis; [11]) | also measured
1 | CCN(CC)CCNC(=O)c1nn(-c2ccccc2)c2c1N(C)S(=O)(=O)c1ccccc1-2 [Compound I-1, 2-methyl-5-phenyl-1,2-benzothiazino[3,4-d]pyrazole-3-yl-carboxylic acid, 2-(N,N-diethylamino)ethylamide,S,S-dioxide] | 4 | 10 | 2700 | 0 | > 20 | 100 | 1.3 | 0.9 | 2.2 | 1.6 | 43 | 72 | 0.5 | 0.2 | 0.8 | 0.4 | 10 | 16 | 0.8 | 1.0 | mortality at 120 h (in vivo [1]; 200 mg/kg/day): 0%; LD 50, relative ratio to piroxicam (Rat; in vivo): 10.0; LD 50, relative ratio to naproxen (Mouse; per os): 2.3; LD 50, relative ratio to piroxicam (Mouse; per os): 7.9; Reduction of the pyresis at hour 4 (pyresis; [11]): 0.86 °C; Antipyretic relative potency to naproxen (pyresis; [12]): 1.3; Antipyretic relative potency to piroxicam (pyresis; [12]): 1.6; Reduction of the pyresis at hour 4 (pyresis; [12]): 1.44 °C; LD50 (in vivo [5]): 2850 mg/kg
2 | CN(C)CCCNC(=O)c1nn(-c2ccccc2)c2c1N(C)S(=O)(=O)c1ccccc1-2 [Compound I-2] | 4 | 10 | 2400 | 0 | > 20 | 100 | 2.1 | 1.5 | 2.8 | 2.0 | 68 | 92 | 0.6 | 0.3 | 0.8 | 0.4 | 12 | 17 | 0.5 | 0.7 | mortality at 120 h (in vivo [1]; 200 mg/kg/day): 0%; LD 50, relative ratio to naproxen (Rat; per os): 4.4; LD 50, relative ratio to piroxicam (Rat; per os): 8.9; LD 50, relative ratio to naproxen (Mouse; per os): 1.1; LD 50, relative ratio to piroxicam (Mouse; per os): 3.8; Reduction of the pyresis at hour 4 (pyresis; [11]): 0.58 °C; Antipyretic relative potency to naproxen (pyresis; [12]): 0.8; Antipyretic relative potency to piroxicam (pyresis; [12]): 1.0; Reduction of the pyresis at hour 4 (pyresis; [12]): 0.89 °C; LD50 (in vivo [5]): 1380 mg/kg
3 | CN1c2c(C(=O)NCCCN3CCOCC3)nn(-c3ccccc3)c2-c2ccccc2S1(=O)=O [Compound I-3] | 4 | 10 | 1080 | 0 | > 20 | 100 | 1.0 | 0.7 | 1.8 | 1.3 | 33 | 60 | 0.4 | 0.2 | 0.7 | 0.3 | 9 | 15 | 0.7 | 0.9 | mortality at 120 h (in vivo [1]; 200 mg/kg/day): 0%; LD 50, relative ratio to piroxicam (Rat; in vivo): 4.0; LD 50, relative ratio to naproxen (Mouse; per os): 1.8; LD 50, relative ratio to piroxicam (Mouse; per os): 6.1; Reduction of the pyresis at hour 4 (pyresis; [11]): 0.77 °C; Antipyretic relative potency to naproxen (pyresis; [12]): 1.0; Antipyretic relative potency to piroxicam (pyresis; [12]): 1.2; Reduction of the pyresis at hour 4 (pyresis; [12]): 1.08 °C; LD50 (in vivo [5]): 2200 mg/kg
4 | CN1c2c(C(=O)NCCCNC3CCCCC3)nn(-c3ccccc3)c2-c2ccccc2S1(=O)=O [Compound I-4] | 2 | 5 | 1090 | 0 | > 20 | 100 | 1.3 | 0.9 | 1.8 | 1.3 | 42 | 59 | 1.7 | 0.8 | 2.4 | 1.1 | 36 | 50 | 1.2 | 1.6 | mortality at 120 h (in vivo [1]; 100 mg/kg/day): 0%; mortality (in vivo [1]; 100 mg/kg/day): 0%; mortality at 120 h (in vivo [1]; 200 mg/kg/day): 20%; mortality (in vivo [1]; 200 mg/kg/day): 4%; LD 50, relative ratio to piroxicam (Rat; in vivo): 4.0; LD 50, relative ratio to piroxicam (Mouse; in vivo): 2.0; Reduction of the pyresis at hour 4 (pyresis; [11]): 1.40 °C; Antipyretic relative potency to naproxen (pyresis; [12]): 1.3; Antipyretic relative potency to piroxicam (pyresis; [12]): 1.7; Reduction of the pyresis at hour 4 (pyresis; [12]): 1.47 °C; LD50 (in vivo [5]): 720 mg/kg
5 | CCN(CC)CCNC(=O)c1nn(-c2cccc(F)c2)c2c1N(C)S(=O)(=O)c1ccccc1-2 [Compound I-20] | 7 | 17 | 2220 | 0 | > 20 | 100 | 1.3 | 1.0 | 2.2 | 1.6 | 44 | 72 | 0.7 | 0.3 | 1.0 | 0.5 | 15 | 21 | 0.4 | 0.5 | mortality at 120 h (in vivo [1]; 350 mg/kg/day): 0%; LD 50, relative ratio to naproxen (Rat; per os): 4.1; LD 50, relative ratio to piroxicam (Rat; per os): 8.2; LD 50, relative ratio to naproxen (Mouse; per os): 1.3; LD 50, relative ratio to piroxicam (Mouse; per os): 4.4; Reduction of the pyresis at hour 4 (pyresis; [11]): 0.45 °C; Antipyretic relative potency to naproxen (pyresis; [12]): 0.7; Antipyretic relative potency to piroxicam (pyresis; [12]): 0.8; Reduction of the pyresis at hour 4 (pyresis; [12]): 0.75 °C; LD50 (in vivo [5]): 1600 mg/kg
6 | COc1ccc2cc([C@H](C)C(=O)O)ccc2c1 [Naproxen, naproxen, reference compound] | – | – | – | – | – | – | – | – | – | – | – | – | – | – | – | – | – | – | – | – | Average number of lesions per animal (rats [4]; 5 mg/kg): 0; Average number of lesions per animal (rats [4]; 7.5 mg/kg): 0.9; Gastric ulcerogenicity (in words) (rats [4]; rats): considerable gastrolesive power; inhibition in vivo at 30 mg/kg (phenylquinone writhes; Mus musculus, 30 mg/kg oral, 2 h before phenylquinone, 5-15 min, female mice): 33%; inhibition in vivo at 30 mg/kg (carrageenin paw edema; Rattus norvegicus, po, 4 h, 30 mg/kg per os, female rats, read-out: % inhibition of the edema after 4 hours): 21%; Reduction of the pyresis at hour 4 (pyresis; 30 mg/g (so in the source) per os): 1.12 °C

— patent publication US4378358A, “Benzothiazinopyrazoles having pharmacological activity” (Mediolanum Farmaceutici s.r.l., priority 1980, dated 1983)
